Tested on: KRAS patient-derived spheroids with HUVEC/MSC, viability
Test: Anticancer human tumor 323965-272-R-J2-PDC patient-derived pancreatic carcinoma cell line growth inhibition [KRAS2]
Conditions: for viability, T/C: stronger effect = lower value
Outline: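 Combination screen of spheroid viability in tumor-cell co-cultures with endothelial (HUVEC) and mesenchymal stem cell stroma. Each agent was tested in half-log dilutions, topping at clinical Cmax or at 10 microM without a known Cmax.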

[1] = curve of first compound, second compound 0.1 µM
[2] = curve of first compound, second compound 0.316 µM
[3] = curve of first compound, second compound 1 µM
[4] = curve of first compound, second compound 3.16 µM
[5] = curve of first compound, second compound 10 µM
[6] = second compound 0.1 µM, first compound 0.0316 µM
[7] = second compound 0.1 µM, first compound 0.1 µM
[8] = second compound 0.1 µM, first compound 0.316 µM
[9] = second compound 0.1 µM, first compound 1 µM
[10] = second compound 0.1 µM, first compound 3.16 µM
[11] = second compound 0.1 µM, first compound 10 µM
[12] = second compound 0.316 µM, first compound 0.0316 µM
[13] = second compound 0.316 µM, first compound 0.1 µM
[14] = second compound 0.316 µM, first compound 0.316 µM
[15] = second compound 0.316 µM, first compound 1 µM
[16] = second compound 0.316 µM, first compound 3.16 µM
[17] = second compound 0.316 µM, first compound 10 µM
[18] = second compound 1 µM, first compound 0.0316 µM
[19] = second compound 1 µM, first compound 0.1 µM
[20] = second compound 1 µM, first compound 0.316 µM
[21] = second compound 1 µM, first compound 1 µM
[22] = second compound 1 µM, first compound 3.16 µM
[23] = second compound 1 µM, first compound 10 µM
[24] = second compound 3.16 µM, first compound 0.0316 µM
[25] = second compound 3.16 µM, first compound 0.1 µM
[26] = second compound 3.16 µM, first compound 0.316 µM
[27] = second compound 3.16 µM, first compound 1 µM
[28] = second compound 3.16 µM, first compound 3.16 µM
[29] = second compound 3.16 µM, first compound 10 µM
[30] = second compound 10 µM, first compound 0.0316 µM
[31] = second compound 10 µM, first compound 0.1 µM
[32] = second compound 10 µM, first compound 0.316 µM
[33] = second compound 10 µM, first compound 1 µM
[34] = second compound 10 µM, first compound 3.16 µM
[35] = second compound 10 µM, first compound 10 µM
[36] = second compound 0.1 µM, first compound 0.00316 µM
[37] = second compound 0.1 µM, first compound 0.01 µM
[38] = second compound 0.316 µM, first compound 0.00316 µM
[39] = second compound 0.316 µM, first compound 0.01 µM
[40] = second compound 1 µM, first compound 0.00316 µM
[41] = second compound 1 µM, first compound 0.01 µM
[42] = second compound 3.16 µM, first compound 0.00316 µM
[43] = second compound 3.16 µM, first compound 0.01 µM
[44] = second compound 10 µM, first compound 0.00316 µM
[45] = second compound 10 µM, first compound 0.01 µM
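Further: spheroids exposed to agents for 7 days.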
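Wherever viability, T/C is given: 100% = DMSO vehicle control viability.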

## COc1cc(Nc2ncc3c(n2)-c2ccc(Cl)cc2C(c2c(F)cccc2OC)=NC3)ccc1C(=O)O + COc1cc2nc(C)nc(NC(C)c3cc(N)cc(C(F)(F)F)c3)c2cc1OC1CCOC1
[1]
  IC50: 92.4 nM
[2]
  IC50: 73.5 nM
[3]
  IC50: < 31.6 nM
[4]
  IC50: < 31.6 nM
[5]
  IC50: < 31.6 nM
[6]
  viability, T/C: 76.5%
[7]
  viability, T/C: 47.3%
[8]
  viability, T/C: 35.6%
[9]
  viability, T/C: 44.1%
[10]
  viability, T/C: 53.4%
[11]
  viability, T/C: 59.1%
[12]
  viability, T/C: 66.2%
[13]
  viability, T/C: 45.3%
[14]
  viability, T/C: 35.7%
[15]
  viability, T/C: 37.5%
[16]
  viability, T/C: 51.5%
[17]
  viability, T/C: 58.5%
[18]
  viability, T/C: 62.2%
[19]
  viability, T/C: 39.6%
[20]
  viability, T/C: 33%
[21]
  viability, T/C: 38.8%
[22]
  viability, T/C: 44.9%
[23]
  viability, T/C: 51.2%
[24]
  viability, T/C: 56.8%
[25]
  viability, T/C: 34.4%
[26]
  viability, T/C: 28.4%
[27]
  viability, T/C: 37.8%
[28]
  viability, T/C: 44.3%
[29]
  viability, T/C: 51.1%
[30]
  viability, T/C: 63.4%
[31]
  viability, T/C: 20.3%
[32]
  viability, T/C: 24%
[33]
  viability, T/C: 41.6%
[34]
  viability, T/C: 42.8%
[35]
  viability, T/C: 36.9%

## CNCc1ccccc1-c1csc(C(C)Nc2nc(C)nc3cc(OC)c(OC)cc23)c1 (stereo not drawn)
Compound 0.316 µM
  viability, T/C: 89.6% [middle of 16 runs]
Compound 1 µM
  viability, T/C: 89.2% [middle of 16 runs]
Compound alone, run of 08/26/2021
  IC50: 5.39 µM [middle of 4 runs]
Compound alone, run of 09/02/2021
  IC50: 4.96 µM [middle of 6 runs]

## CCN1CCN(Cc2ccc(Nc3ncc(F)c(-c4cc(F)c5nc(C)n(C(C)C)c5c4)n3)nc2)CC1 + CNCc1ccccc1-c1csc(C(C)Nc2nc(C)nc3cc(OC)c(OC)cc23)c1
[1]
  IC50: > 1000 nM
[2]
  IC50: > 1000 nM
[3]
  IC50: > 1000 nM
[4]
  IC50: 127 nM
[5]
  IC50: < 3.16 nM
[36]
  viability, T/C: 91.5%
[37]
  viability, T/C: 85.2%
[6]
  viability, T/C: 59.8%
[7]
  viability, T/C: 47%
[8]
  viability, T/C: 51.5%
[9]
  viability, T/C: 59.7%
[38]
  viability, T/C: 97.3%
[39]
  viability, T/C: 93.3%
[12]
  viability, T/C: 65.7%
[13]
  viability, T/C: 56%
[14]
  viability, T/C: 53%
[15]
  viability, T/C: 56%
[40]
  viability, T/C: 94.2%
[41]
  viability, T/C: 92.8%
[18]
  viability, T/C: 72.6%
[19]
  viability, T/C: 71.8%
[20]
  viability, T/C: 61.8%
[21]
  viability, T/C: 57.7%
[42]
  viability, T/C: 80%
[43]
  viability, T/C: 79.2%
[24]
  viability, T/C: 68.4%
[25]
  viability, T/C: 53.4%
[26]
  viability, T/C: 33%
[27]
  viability, T/C: 1.27%
[44]
  viability, T/C: 0.23%
[45]
  viability, T/C: 0.23%
[30]
  viability, T/C: 0.18%
[31]
  viability, T/C: 0.16%
[32]
  viability, T/C: 0.16%
[33]
  viability, T/C: 0.18%

## CC1(C)CCC(CN2CCN(c3ccc(C(=O)NS(=O)(=O)c4ccc(NCC5CCOCC5)c([N+](=O)[O-])c4)c(Oc4cnc5[nH]ccc5c4)c3)CC2)=C(c2ccc(Cl)cc2)C1
Compound 0.0316 µM
  viability, T/C: 100% [middle of 5 runs]
Compound 0.1 µM
  viability, T/C: 94.9% [middle of 5 runs]
Compound 0.316 µM
  viability, T/C: 98% [middle of 5 runs]
Compound 1 µM
  viability, T/C: 96.1% [middle of 5 runs]
Compound 3.16 µM
  viability, T/C: 21% [middle of 5 runs]
Compound 10 µM
  viability, T/C: 7.62% [middle of 5 runs]
Curve of compound
  IC50: 1.99 µM [middle of 5 runs]

## CN(C)C/C=C/C(=O)Nc1cc2c(Nc3ccc(F)c(Cl)c3)ncnc2cc1O[C@H]1CCOC1
Compound 0.000316 µM
  viability, T/C: 99% [middle of 5 runs]
Compound 0.001 µM
  viability, T/C: 97.1% [middle of 5 runs]
Compound 0.00316 µM
  viability, T/C: 89.2% [middle of 5 runs]
Compound 0.01 µM
  viability, T/C: 81% [middle of 5 runs]
Compound 0.0316 µM
  viability, T/C: 74.5% [middle of 5 runs]
Compound 0.1 µM
  viability, T/C: 73.5% [middle of 5 runs]
Curve of compound
  IC50: > 100 nM

## CN(C)C/C=C/C(=O)Nc1cc2c(Nc3ccc(F)c(Cl)c3)ncnc2cc1O[C@H]1CCOC1 + CNCc1ccccc1-c1csc(C(C)Nc2nc(C)nc3cc(OC)c(OC)cc23)c1
[1]
  IC50: > 100 nM
[2]
  IC50: > 100 nM
[3]
  IC50: > 100 nM
[4]
  IC50: > 100 nM
[5]
  IC50: < 0.316 nM
Second compound 0.1 µM, first compound 0.000316 µM
  viability, T/C: 91.6%
Second compound 0.1 µM, first compound 0.001 µM
  viability, T/C: 80.5%
[36]
  viability, T/C: 94.3%
[37]
  viability, T/C: 70.6%
[6]
  viability, T/C: 59.6%
[7]
  viability, T/C: 62.7%
Second compound 0.316 µM, first compound 0.000316 µM
  viability, T/C: 83.8%
Second compound 0.316 µM, first compound 0.001 µM
  viability, T/C: 82.1%
[38]
  viability, T/C: 74.3%
[39]
  viability, T/C: 64.2%
[12]
  viability, T/C: 59.2%
[13]
  viability, T/C: 57.8%
Second compound 1 µM, first compound 0.000316 µM
  viability, T/C: 82.3%
Second compound 1 µM, first compound 0.001 µM
  viability, T/C: 81.4%
[40]
  viability, T/C: 75.2%
[41]
  viability, T/C: 60.6%
[18]
  viability, T/C: 63.3%
[19]
  viability, T/C: 65.1%
Second compound 3.16 µM, first compound 0.000316 µM
  viability, T/C: 73.8%
Second compound 3.16 µM, first compound 0.001 µM
  viability, T/C: 63.7%
[42]
  viability, T/C: 79.1%
[43]
  viability, T/C: 79.6%
[24]
  viability, T/C: 47.2%
[25]
  viability, T/C: 71.9%
Second compound 10 µM, first compound 0.000316 µM
  viability, T/C: 0.21%
Second compound 10 µM, first compound 0.001 µM
  viability, T/C: 0.21%
[44]
  viability, T/C: 1.04%
[45]
  viability, T/C: 0.21%
[30]
  viability, T/C: 0.2%
[31]
  viability, T/C: 0.78%

## CC(C)NCC(C(=O)N1CCN(c2ncnc3c2C(C)CC3O)CC1)c1ccc(Cl)cc1 (stereo not drawn) + CC1OCC2(CCN(c3cnc(Sc4ccnc(N)c4Cl)c(N)n3)CC2)C1N
[1]
  IC50: 732 nM
[2]
  IC50: 143 nM
[3]
  IC50: < 31.6 nM
[4]
  IC50: < 31.6 nM
[5]
  IC50: < 31.6 nM
[6]
  viability, T/C: 84.6%
[7]
  viability, T/C: 72.5%
[8]
  viability, T/C: 57.6%
[9]
  viability, T/C: 44.9%
[10]
  viability, T/C: 42.1%
[11]
  viability, T/C: 32.4%
[12]
  viability, T/C: 60.2%
[13]
  viability, T/C: 54.2%
[14]
  viability, T/C: 40.8%
[15]
  viability, T/C: 29%
[16]
  viability, T/C: 27.9%
[17]
  viability, T/C: 23.6%
[18]
  viability, T/C: 38.5%
[19]
  viability, T/C: 35.3%
[20]
  viability, T/C: 21.5%
[21]
  viability, T/C: 12.7%
[22]
  viability, T/C: 12.6%
[23]
  viability, T/C: 10.4%
[24]
  viability, T/C: 24.8%
[25]
  viability, T/C: 20.3%
[26]
  viability, T/C: 12.6%
[27]
  viability, T/C: 7.8%
[28]
  viability, T/C: 5.77%
[29]
  viability, T/C: 3.98%
[30]
  viability, T/C: 20.8%
[31]
  viability, T/C: 19.1%
[32]
  viability, T/C: 11.5%
[33]
  viability, T/C: 6.63%
[34]
  viability, T/C: 4.73%
[35]
  viability, T/C: 2.87%

## COc1cc2nccc(Oc3ccc(NC(=O)C4(C(=O)Nc5ccc(F)cc5)CC4)cc3)c2cc1OC + COc1cc2nc(C)nc(NC(C)c3cc(N)cc(C(F)(F)F)c3)c2cc1OC1CCOC1
[1]
  IC50: > 10000 nM
[2]
  IC50: > 10000 nM
[3]
  IC50: > 10000 nM
[4]
  IC50: 9980 nM
[5]
  IC50: 3890 nM
[6]
  viability, T/C: 86.5%
[7]
  viability, T/C: 86.5%
[8]
  viability, T/C: 84.1%
[9]
  viability, T/C: 86.5%
[10]
  viability, T/C: 75.7%
[11]
  viability, T/C: 86.2%
[12]
  viability, T/C: 76%
[13]
  viability, T/C: 85.7%
[14]
  viability, T/C: 88%
[15]
  viability, T/C: 82.2%
[16]
  viability, T/C: 84.7%
[17]
  viability, T/C: 75.2%
[18]
  viability, T/C: 84.4%
[19]
  viability, T/C: 79.8%
[20]
  viability, T/C: 84.5%
[21]
  viability, T/C: 82.8%
[22]
  viability, T/C: 74.1%
[23]
  viability, T/C: 66.3%
[24]
  viability, T/C: 87.1%
[25]
  viability, T/C: 85.3%
[26]
  viability, T/C: 95.3%
[27]
  viability, T/C: 89.6%
[28]
  viability, T/C: 79%
[29]
  viability, T/C: 49.5%
[30]
  viability, T/C: 85.4%
[31]
  viability, T/C: 93.6%
[32]
  viability, T/C: 84.9%
[33]
  viability, T/C: 84.3%
[34]
  viability, T/C: 59.1%
[35]
  viability, T/C: 7.87%
